Legend:
Staphylococcus aureus = assay: disinfection at low concentration in aqueous solution; assay type: cell-based; conditions: 25 mg/L in aqueous solution; dependent on pH
Excerpt: In various embodiments provided herein, the N-halamine is 1-chloro-2,2,5,5-tetramethyl-4-imidazolidinone (“compound I”). Compound I is a stable N-halamine both in aqueous solution and in the solid state as long as it is not exposed to direct sunlight or extensive UV radiation. At ambient temperature, the hydrolysis equilibrium constant of compound I to produce its precursor 2,2,5,5-tetramethyl-4-imidazolidinone and “free chlorine” (HOCl) is lower than 10^−11. At low concentration in aqueous solution (e.g., 25 mg/L), long contact times (typically between 1-10 hours, dependent on pH) are required to obtain a 6-log reduction of Staphylococcus aureus. […] Furthermore, compound I is inexpensive and may be prepared according to the procedures described in U.S. Pat. No. 5,057,612, U.S. Pat. No. 5,126,057, or Tsao et al. (“Novel N-halamine Disinfectant Compounds,” Biotechnol. Prog., 1991; 7:60), the disclosures of all which are incorporated herein in their entirety.

[1] = storage (shelf-life) stability of oxidative chlorine on impregnated fabrics, iodometric/thiosulfate titration; assay type: physicochemical; conditions: for Chlorine loading, dark storage / Chlorine loading, fluorescent light: 22 g/m^2 fabric, 22° C.
Description: A modified iodometric/thiosulfate titration procedure was used to determine the active chlorine content on the fabrics impregnated with compound I (see, for example, Worley et al., “Novel N-halamine Siloxane Monomers and Polymers for Preparing Biocidal Coatings,” Surf Coat. Int., Part B, 2005; 88:93, herein incorporated by reference in its entirety). Cl^+% was calculated by the equation given below, where Cl^+% is the weight percent of the oxidative chlorine, N and V are
[formula] the normality (equiv/L) and volume (L) of the Na2S2O3 (titrant), respectively, and W is the weight of the polypropylene fabric in grams.
Storage or shelf-life stability of the impregnated 22 g/m^2 fabrics was evaluated in the instant example. Fabric samples were stored in a cabinet (e.g., a dark environment) without exposure to fluorescent light and on the laboratory bench (e.g., under fluorescent light) at room temperature. The stability of the chlorine content over time was measured for 24 weeks. The stabilities of the fabrics impregnated with compound I with a basis weight of 22 g/m^2 were determined at 22° C. by measuring the amount of remaining chlorine on the fabrics by using the standard iodometric/thiosulfate titration procedure.

[2] = system: Escherichia coli O157:H7 ATCC 43895; assay: sandwich contact test, polypropylene nonwoven face-piece material; assay type: cell-based; conditions: inoculum 6.10 log
Description: (§1) Compound I (1-chloro-2,2,5,5-tetramethyl-imidazolindinone) at 1 wt %) was dissolved in ethyl alcohol solution at room temperature, and then 300 cm^2 pieces of polypropylene nonwoven fabrics were soaked in the solution for 10 minutes. The fabrics were then padded through a laboratory wringer (Birch Brothers Southern, Waxhaw, N.C., U.S.A.) at low pressure settings. This procedure was followed by drying the fabrics at room temperature for 24 hours. The control fabrics were untreated 22 g/m^2 and 50 g/m^2 polypropylene nonwovens.
(§2) Two types of tests were conducted in order to determine the biocidal efficacy of the face mask embodiments. Staphylococcus aureus (S. aureus, ATCC 6538) was used as a Gram-positive bacterium and Escherichia coli(E. coli O157:H7, ATCC 43895) was used as a Gram-negative bacterium in order to challenge the treated (impregnated with compound I) and non-treated (control) fabrics.
(§3) In the first method, a “sandwich test” was used (see Worley et al., “Novel N-halamine Siloxane Monomers and Polymers for Preparing Biocidal Coatings,” Surf Coat. Int., Part B, 2005; 88:93). In this procedure, bacteria were suspended in 100 μM phosphate buffer (pH 7) to produce a suspension of known concentration of bacteria (colony forming units, CFU/mL). Then, an aliquot of 25 μL of this suspension was placed in the center of a 2.54 cm square swatch, and a second identical swatch was placed on top. Both swatches were covered by a sterile weight to ensure sufficient contact with the bacteria. After predetermined contact times, samples were quenched by 5.0 mL of sterile 0.02 N sodium thiosulfate solution to neutralize the oxidative chlorine and thus terminate the disinfection action. Samples were vortexed for 2 minutes, and then serial dilutions were prepared using pH 7, 100 μM phosphate buffer and plated on Trypticase soy agar plates. After incubating the plates at 37° C. for 24 hours, bacterial colonies were counted for the biocidal efficacy analysis. For each contact time a single fabric swatch sandwich was vortexed in a quenching solution to wash the bacteria into a suspension which was immediately plated into duplicate serial dilutions followed by incubation and counting the viable colonies of bacteria. All experiments were performed at least twice (on different days) using different bacterial inocula.
(§4) Antimicrobial efficacy of the mask materials was analyzed by the sandwich contact test method. The antimicrobial efficacies of the treated (impregnated with compound I) and non-treated (control) swatches were evaluated by challenging both types of fabrics against S. aureus and E. coli O157:H7 where the bacteria inoculum population was 1.80×10^6 CFU and 1.27×10^6 CFU, respectively. In Table 2, antimicrobial results are summarized at different contact time intervals.

[3] = system: Staphylococcus aureus ATCC 6538; assay: as above; assay type: cell-based; conditions: inoculum 6.26 log
Description: as §1, §2, §3, §4

[4] = 22 g/m^2 fabric, Cl^+ % = 0.52, contact time 5 min
[5] = 22 g/m^2 fabric, Cl^+ % = 0.52, contact time 10 min
[6] = 22 g/m^2 fabric, Cl^+ % = 0.52, contact time 15 min
[7] = 22 g/m^2 fabric, Cl^+ % = 0.52, contact time 30 min
[8] = 50 g/m^2 fabric, Cl^+ % = 0.52, contact time 5 min
[9] = 50 g/m^2 fabric, Cl^+ % = 0.52, contact time 10 min
[10] = 50 g/m^2 fabric, Cl^+ % = 0.52, contact time 15 min
[11] = 50 g/m^2 fabric, Cl^+ % = 0.52, contact time 30 min

With `CC1(C)NC(=O)C(C)(C)N1Cl` [Compound I, 1-chloro-2,2,5,5-tetramethyl-4-imidazolidinone] the “contact time required to obtain a 6-log reduction” value (Staphylococcus aureus) was 1-10 hours, the “Chlorine loading, dark storage” value ([1]; 2 weeks) was 0.37 wt % Cl^+ and the “Chlorine loading, fluorescent light” value ([1]; 2 weeks) was 0.05 wt % Cl^+. For the same compound, the “Chlorine loading, dark storage” value ([1]; 3 weeks) was 0.40 wt % Cl^+, the “Chlorine loading, fluorescent light” value ([1]; 3 weeks) was 0 wt % Cl^+ and the “Chlorine loading, dark storage” value ([1]; 5 weeks) was 0.37 wt % Cl^+. The “Chlorine loading, fluorescent light” value ([1]; 5 weeks) was 0 wt % Cl^+, the “Chlorine loading, dark storage” value ([1]; 8 weeks) was 0.40 wt % Cl^+ and the “Chlorine loading, fluorescent light” value ([1]; 8 weeks) was 0 wt % Cl^+. For the same compound, the “Chlorine loading, dark storage” value ([1]; 12 weeks) was 0.42 wt % Cl^+, the “Chlorine loading, fluorescent light” value ([1]; 12 weeks) was 0 wt % Cl^+ and the “Chlorine loading, dark storage” value ([1]; 24 weeks) was 0.41 wt % Cl^+. For the same compound, the “Chlorine loading, fluorescent light” value ([1]; 24 weeks) was 0 wt % Cl^+, the “Chlorine loading, dark storage” value ([1]; Initial) was 0.36 wt % Cl^+ and the “Chlorine loading, fluorescent light” value ([1]; Initial) was 0.40 wt % Cl^+. For the same compound, the “chlorine loss on storage” value ([1]; fabrics exposed to fluorescent light, after 3 weeks of exposure) was “the remaining chlorine was lost”, the “chlorine loss on storage” value ([1]; fabrics exposed to fluorescent light, within a 2 week time period) was “Almost all of the initial chlorine loading was lost” and the “chlorine loss on storage” value ([1]; fabrics stored in dark environmental conditions, 6 month time period) was “no significant chlorine loss”. The “Bacterial reduction (log) E. coli” value [2, 4] was 3.68 log, the “Bacterial reduction (log) E. coli” value [2, 5] was 6.10 log and the “Bacterial reduction (log) E. coli” value [2, 6] was 6.10 log. For the same compound, the “Bacterial reduction (log) E. coli” value [2, 7] was 6.10 log, the “Bacterial reduction (log) E. coli” value [2, 8] was 3.80 log and the “Bacterial reduction (log) E. coli” value [2, 9] was 6.10 log. For the same compound, the “Bacterial reduction (log) E. coli” value [2, 10] was 6.10 log, the “Bacterial reduction (log) E. coli” value [2, 11] was 6.10 log and the “Bacterial reduction (log) S. aureus” value [3, 4] was 4.13 log. For the same compound, the “Bacterial reduction (log) S. aureus” value [3, 5] was 6.26 log, the “Bacterial reduction (log) S. aureus” value [3, 6] was 6.26 log and the “Bacterial reduction (log) S. aureus” value [3, 7] was 6.26 log. The “Bacterial reduction (log) S. aureus” value [3, 8] was 6.26 log, the “Bacterial reduction (log) S. aureus” value [3, 9] was 6.26 log and the “Bacterial reduction (log) S. aureus” value [3, 10] was 6.26 log. For the same compound, the “Bacterial reduction (log) S. aureus” value [3, 11] was 6.26 log.

Source: patent US10178866B2, “N-halamine containing fibrous compositions and uses thereof” (priority 2014, dated 2019)
